In patent US10584124B2, “Crystalline forms” (Array BioPharma Inc., priority 2017, dated 2020):

How the values were obtained:
[1] = Primary salt screen of the compound of Formula II: XRPD post-cycling and post-stability (40° C., 75% RH overnight); assay type: physicochemical; settings: compound of Formula II + the acid given as label; for XRPD post-cycling: cycled RT/40° C. over 24 hours; for XRPD post-stability: 40° C. and 75% RH overnight
Protocol: The salt screen was performed as follows. […] In cases where stock solutions could not be attained, the acid was added neat to the solution of the compound of Formula II.
The samples were then temperature cycled between ambient (RT) and 40° C. in 4-hour cycles over 24 hours. Each mixture was filtered and isolated solids were analyzed (wet) by XRPD to determine crystallinity and form. Samples in which solid was not observed were stored uncapped to allow solvent evaporation. The remaining samples were placed in an oven at 40° C. and 75% RH overnight. The samples were then reanalyzed by XRPD to determine any changes in form or crystallinity. The observations and results, including the different diffractogram patterns observed during the screen, are shown in Tables 29-53, below, and FIGS. 24A-24B through 47A-47B.

[2] = Stability screening of freebase and selected salts of Formula I, 40° C. and 75% RH, weekly HPLC over 4 weeks
[3] = Solubility test of the HBr salt of the compound of Formula I; assay type: physicochemical; settings: for Appearance at 25° C. after 2 h / Solids dissolve at 65° C.?: HBr salt; for Appearance at 25° C. after 2 h: 10-20 mg in 1 mL; for Solids dissolve at 65° C.?: 65° C. for 3 hours

CCS(=O)(=O)O [Ethane sulfonic acid]
XRPD post-cycling ([1]; Acetone/water (10%)): No solid | XRPD post-cycling ([1]; Dioxane/water (10%)): No solid | XRPD post-cycling ([1]; EtOH/water (10%)): No solid | XRPD post-cycling ([1]; IPA/water (10%)): Amorphous | XRPD post-cycling ([1]; MeCN/water (20%)): No solid | XRPD post-cycling ([1]; THF/water (1%)): No solid | XRPD post-stability ([1]; from Acetone/water (10%)): No solid | XRPD post-stability ([1]; from Dioxane/water (10%)): No solid | XRPD post-stability ([1]; from EtOH/water (10%)): No solid | XRPD post-stability ([1]; from IPA/water (10%)): Amorphous | XRPD post-stability ([1]; from MeCN/water (20%)): No solid | XRPD post-stability ([1]; from THF/water (1%)): No solid

Cl [Hydrochloric acid]
XRPD post-cycling ([1]; Acetone/water (10%)): Form 2 | XRPD post-cycling ([1]; Dioxane/water (10%)): Form 2 | XRPD post-cycling ([1]; EtOH/water (10%)): Form 2 | XRPD post-cycling ([1]; IPA/water (10%)): Form 2 | XRPD post-cycling ([1]; MeCN/water (20%)): Form 2 | XRPD post-cycling ([1]; THF/water (1%)): Form 2 | XRPD post-stability ([1]; from Acetone/water (10%)): Form 2 | XRPD post-stability ([1]; from Dioxane/water (10%)): Form 2 | XRPD post-stability ([1]; from EtOH/water (10%)): Form 2 | XRPD post-stability ([1]; from IPA/water (10%)): Form 2 | XRPD post-stability ([1]; from MeCN/water (20%)): Form 2 | XRPD post-stability ([1]; from THF/water (1%)): Form 2

CS(=O)(=O)O [Methane sulfonic acid]
XRPD post-cycling ([1]; Acetone/water (10%)): Amorphous | XRPD post-cycling ([1]; Dioxane/water (10%)): No solid | XRPD post-cycling ([1]; EtOH/water (10%)): Amorphous | XRPD post-cycling ([1]; IPA/water (10%)): Form 2 | XRPD post-cycling ([1]; MeCN/water (20%)): No solid | XRPD post-cycling ([1]; THF/water (1%)): No solid | XRPD post-stability ([1]; from Acetone/water (10%)): Amorphous | XRPD post-stability ([1]; from Dioxane/water (10%)): No solid | XRPD post-stability ([1]; from EtOH/water (10%)): Amorphous | XRPD post-stability ([1]; from IPA/water (10%)): Form 2 | XRPD post-stability ([1]; from MeCN/water (20%)): No solid | XRPD post-stability ([1]; from THF/water (1%)): No solid

O=C(O)/C=C\C(=O)O [Maleic acid]
XRPD post-cycling ([1]; Acetone/water (10%)): Amorphous | XRPD post-cycling ([1]; Dioxane/water (10%)): No solid | XRPD post-cycling ([1]; EtOH/water (10%)): Amorphous | XRPD post-cycling ([1]; IPA/water (10%)): Amorphous | XRPD post-cycling ([1]; MeCN/water (20%)): No solid | XRPD post-stability ([1]; from Acetone/water (10%)): Amorphous | XRPD post-stability ([1]; from Dioxane/water (10%)): No solid | XRPD post-stability ([1]; from EtOH/water (10%)): Amorphous | XRPD post-stability ([1]; from IPA/water (10%)): Amorphous | XRPD post-stability ([1]; from MeCN/water (20%)): No solid | XRPD post-stability ([1]; from THF/water (1%)): Form 15

COc1ccc(CN2CCN(c3ccc(-c4cc(-c5cnn(C)c5)cn5ncc(C#N)c45)cn3)CC2)cn1 [Freebase I]
Absolute % change ([2]; 40° C. and 75% RH, T = 0 to 4 weeks): 0.4% | Stability, HPLC analysis, T = 1 week ([2]; stored at 40° C. and 75% RH, 1 week): 97.3% | Stability, HPLC analysis, T = 2 weeks ([2]; stored at 40° C. and 75% RH, 2 weeks): 97.1% | Stability, HPLC analysis, T = 3 weeks ([2]; stored at 40° C. and 75% RH, 3 weeks): 97.1% | Stability, HPLC analysis, T = 4 weeks ([2]; stored at 40° C. and 75% RH, 4 weeks): 96.9% | Stability, HPLC analysis, T = 0 ([2]; stored at 40° C. and 75% RH, T = 0): 97.3%

O=C(O)C(=O)O [Oxalic acid]
XRPD post-cycling ([1]; Acetone/water (10%)): Amorphous | XRPD post-cycling ([1]; Dioxane/water (10%)): Form 6 | XRPD post-cycling ([1]; EtOH/water (10%)): Amorphous | XRPD post-cycling ([1]; IPA/water (10%)): Amorphous | XRPD post-cycling ([1]; MeCN/water (20%)): No solid | XRPD post-cycling ([1]; THF/water (1%)): No solid | XRPD post-stability ([1]; from Dioxane/water (10%)): Form 6 | XRPD post-stability ([1]; from EtOH/water (10%)): Form 6 | XRPD post-stability ([1]; from IPA/water (10%)): Form 6 | XRPD post-stability ([1]; from MeCN/water (20%)): No solid | XRPD post-stability ([1]; from THF/water (1%)): No solid

Cc1ccc(S(=O)(=O)O)cc1 [p-Toluene sulfonic acid]
XRPD post-cycling ([1]; Acetone/water (10%)): Form 4 | XRPD post-cycling ([1]; Dioxane/water (10%)): No solid | XRPD post-cycling ([1]; EtOH/water (10%)): Amorphous | XRPD post-cycling ([1]; IPA/water (10%)): Amorphous | XRPD post-cycling ([1]; MeCN/water (20%)): No solid | XRPD post-stability ([1]; from Acetone/water (10%)): Form 4 | XRPD post-stability ([1]; from Dioxane/water (10%)): No solid | XRPD post-stability ([1]; from EtOH/water (10%)): Amorphous | XRPD post-stability ([1]; from IPA/water (10%)): Form 4 | XRPD post-stability ([1]; from MeCN/water (20%)): No solid | XRPD post-stability ([1]; from THF/water (1%)): Form 4

O=S(=O)(O)CCS(=O)(=O)O [1,2-Ethane disulfonic acid]
XRPD post-cycling ([1]; Acetone/water (10%)): No solid | XRPD post-cycling ([1]; Dioxane/water (10%)): No solid | XRPD post-cycling ([1]; EtOH/water (10%)): No solid | XRPD post-cycling ([1]; IPA/water (10%)): No solid | XRPD post-cycling ([1]; MeCN/water (20%)): No solid | XRPD post-cycling ([1]; THF/water (1%)): No solid | XRPD post-stability ([1]; from Acetone/water (10%)): No solid | XRPD post-stability ([1]; from Dioxane/water (10%)): No solid | XRPD post-stability ([1]; from EtOH/water (10%)): No solid | XRPD post-stability ([1]; from IPA/water (10%)): No solid | XRPD post-stability ([1]; from MeCN/water (20%)): No solid | XRPD post-stability ([1]; from THF/water (1%)): No solid

N[C@@H](CC(=O)O)C(=O)O [L-Aspartic acid]
XRPD post-cycling ([1]; IPA/water (10%)): Form 8 | XRPD post-cycling ([1]; THF/water (1%)): Form 8 | XRPD post-stability ([1]; from Acetone/water (10%)): Form 14 | XRPD post-stability ([1]; from IPA/water (10%)): Form 8 | XRPD post-stability ([1]; from MeCN/water (20%)): Form 8 | XRPD post-stability ([1]; from THF/water (1%)): Form 8

O=S(=O)(O)c1ccc2ccccc2c1 [Naphthalene-2-sulfonic acid]
XRPD post-cycling ([1]; EtOH/water (10%)): Form 2 | XRPD post-cycling ([1]; THF/water (1%)): Form 5 | XRPD post-stability ([1]; from EtOH/water (10%)): Form 2

O=P(O)(O)O [Phosphoric acid]
XRPD post-cycling ([1]; Acetone/water (10%)): Form 9 | XRPD post-cycling ([1]; Dioxane/water (10%)): No solid | XRPD post-cycling ([1]; IPA/water (10%)): Form 10 | XRPD post-cycling ([1]; MeCN/water (20%)): No solid | XRPD post-cycling ([1]; THF/water (1%)): Amorphous | XRPD post-stability ([1]; from Dioxane/water (10%)): No solid | XRPD post-stability ([1]; from EtOH/water (10%)): Form 10 | XRPD post-stability ([1]; from IPA/water (10%)): Form 10 | XRPD post-stability ([1]; from MeCN/water (20%)): No solid | XRPD post-stability ([1]; from THF/water (1%)): Form 10

Br.COc1ccc(CN2CCN(c3ccc(-c4cc(-c5cnn(C)c5)cn5ncc(C#N)c45)cn3)CC2)cn1 [HBr salt]
solubility ([3]; DMSO): 1950 µg/mL | Appearance at 25° C. after 2 h ([3]; solvent 2-methyl THF): Solids | Appearance at 25° C. after 2 h ([3]; solvent ACN): Solids | Appearance at 25° C. after 2 h ([3]; solvent Acetone): Solids | Appearance at 25° C. after 2 h ([3]; solvent DCE): Solids | Appearance at 25° C. after 2 h ([3]; solvent DCM): Solids | Appearance at 25° C. after 2 h ([3]; solvent DMSO): Solids | Appearance at 25° C. after 2 h ([3]; solvent EtOAc): Solids | Appearance at 25° C. after 2 h ([3]; solvent EtOH): Solids | Appearance at 25° C. after 2 h ([3]; solvent IPA): Solids | Appearance at 25° C. after 2 h ([3]; solvent MEK): Solids | Appearance at 25° C. after 2 h ([3]; solvent MTBE): Solids | Appearance at 25° C. after 2 h ([3]; solvent MeOH): Solids | Appearance at 25° C. after 2 h ([3]; solvent THF): Solids | Appearance at 25° C. after 2 h ([3]; solvent iPAc): Solids | Appearance at 25° C. after 2 h ([3]; solvent water): Solids | Solids dissolve at 65° C.? ([3]; solvent 2-methyl THF): No | Solids dissolve at 65° C.? ([3]; solvent ACN): No | Solids dissolve at 65° C.? ([3]; solvent Acetone): No | Solids dissolve at 65° C.? ([3]; solvent DCE): No | Solids dissolve at 65° C.? ([3]; solvent DCM): No | Solids dissolve at 65° C.? ([3]; solvent DMSO): No | Solids dissolve at 65° C.? ([3]; solvent EtOAc): No | Solids dissolve at 65° C.? ([3]; solvent EtOH): No | Solids dissolve at 65° C.? ([3]; solvent IPA): No | Solids dissolve at 65° C.? ([3]; solvent MEK): No | Solids dissolve at 65° C.? ([3]; solvent MTBE): No | Solids dissolve at 65° C.? ([3]; solvent MeOH): No | Solids dissolve at 65° C.? ([3]; solvent THF): No | Solids dissolve at 65° C.? ([3]; solvent iPAc): No | Solids dissolve at 65° C.? ([3]; solvent water): No | Solubility (in words) ([3]; solvent systems examined): low solubility | Solids upon heating to 65° C. ([3]; solvent systems examined, 65° C.): did not dissolve

O=S(=O)(O)c1ccccc1 [Benzene sulfonic acid]
XRPD post-cycling ([1]; Dioxane/water (10%)): No solid | XRPD post-cycling ([1]; EtOH/water (10%)): Form 2 | XRPD post-cycling ([1]; IPA/water (10%)): Form 2 | XRPD post-cycling ([1]; MeCN/water (20%)): No solid | XRPD post-cycling ([1]; THF/water (1%)): No solid | XRPD post-stability ([1]; from Dioxane/water (10%)): No solid | XRPD post-stability ([1]; from EtOH/water (10%)): Form 2 | XRPD post-stability ([1]; from IPA/water (10%)): Form 2 | XRPD post-stability ([1]; from MeCN/water (20%)): No solid | XRPD post-stability ([1]; from THF/water (1%)): No solid

O=S(=O)(O)O [Sulfuric acid]
XRPD post-cycling ([1]; Acetone/water (10%)): No solid | XRPD post-cycling ([1]; Dioxane/water (10%)): No solid | XRPD post-cycling ([1]; EtOH/water (10%)): No solid | XRPD post-cycling ([1]; IPA/water (10%)): Form 3 | XRPD post-cycling ([1]; MeCN/water (20%)): No solid | XRPD post-cycling ([1]; THF/water (1%)): No solid | XRPD post-stability ([1]; from Acetone/water (10%)): No solid | XRPD post-stability ([1]; from Dioxane/water (10%)): No solid | XRPD post-stability ([1]; from EtOH/water (10%)): No solid | XRPD post-stability ([1]; from IPA/water (10%)): Form 5 | XRPD post-stability ([1]; from MeCN/water (20%)): No solid | XRPD post-stability ([1]; from THF/water (1%)): No solid

O=S(=O)(O)CCO [2-Hydroxy ethanesulfonic acid]
XRPD post-cycling ([1]; Dioxane/water (10%)): Form 7 | XRPD post-cycling ([1]; EtOH/water (10%)): Form 7 | XRPD post-stability ([1]; from Dioxane/water (10%)): Form 7 | XRPD post-stability ([1]; from EtOH/water (10%)): Form 7
